Patent US9440980B2, “Remedy for diabetes” (EA Pharma Co., Ltd., priority 2007, dated 2016)

What was measured:
Gβ1γ2-Myc = molecular target: T1, Gβ1γ2-Myc (Homo sapiens, UniProt P62873); assay: Gβ binding ability using Gβ-expressing insect cell extract solution (PD10 method); settings: binding strength Compound 1>Compound 3>Compound 6, FIG. 8
T1 construct: made in house; host or cells: Sf21 insect cells (baculovirus), unpurified Triton X-100 extract
Protocol: The PD10 method was carried out as follows. To a microtube were added 250 μl of an RBA buffer, 100 μl of an RBA buffer containing 0 or 500 μM of the unlabeled Compound 1, 100 μl of the above extract solution, and 50 μl of an RBA buffer containing 2.5 μM of the ^3H-labeled Compound 1 successively, and the resultant mixture was stirred and left at room temperature for 1 hour. The entire reaction solution (0.5 ml) was added to a PD10 column sufficiently substituted with the RBA buffer, 2 ml of the RBA buffer was passed through the PD10 column, and thereafter further eluate by 1.5 ml of the RBA buffer was collected as a high-molecular fraction containing the protein, 15 ml of a liquid scintillator was added thereto, and the amount of the ^3H-labeled Compound 1 contained in the high-molecular fraction was measured by a scintillation counter. The count of the sample added with the unlabeled Compound 1 at the final concentration of 100 μM was considered to correspond to the nonspecific binding, the difference between the nonspecific binding count and the count of the sample not added with the unlabeled Compound 1 was considered to correspond to the specific binding, and thus the amount of the binding protein contained in the extract solution was evaluated.
Using the frozen insect cell Sf21 expressing the Gβ1, Myc-Gγ2, and Gαi1-His prepared in Example 19 (8), 10^7 cells were melted and suspended in 1.3 ml of an RBA buffer containing 1% Triton X-100 (75 mM Tris-HCl, 12.5 mM MgCl2, 2 mM EDTA, pH 7.4). […]
The inhibitory activity against the binding of the ^3H-labeled Compound 1 to the Gβ1γ2-Myc was considered to correspond to the activity of the compounds for binding to the Gβ1γ2-Myc. Thus, the activity of each of Compounds 1, 3, and 6 for binding to the Gβ1γ2-Myc was measured using the above extract solution. The activity of the ^3H-labeled Compound 1 for binding to the protein contained in the extract solution was measured by the PD10 method described in Example 15 (1). […]

HLF cell membrane = assay: Binding assay of 3H-labeled Compound 1 using HLF cell membrane; set-up: species or system human; settings: 3H-labeled Compound 1, calculated by Scatchard plot
Protocol: A cell membrane of a human liver-derived HLF cell was prepared as follows. HLF cells were approximately confluently cultured in a Dulbecco MEM medium containing 10% FCS in a cell culture dish having a diameter of 15 cm. The HLF cells cultured in 30 dishes were scraped by a cell scraper in the presence of an HMEE buffer (20 mM HEPES-KOH, 1 mM EDTA, 1 mM EGTA, and 2 mM MgCl2) to obtain about 30 ml of a cell suspension. The suspension was homogenized using a TEFLON (registered trademark) homogenizer (ice temperature, 1000 rpm, 15 stroke) and centrifuged at a low rate (1500 rpm, 5 minutes). […]
The binding assay of the ^3H-labeled Compound 1 on thus obtained cell membrane was carried out as follows. […] The filter plate was well washed with a TBS (20 mM Tris-HCl, 0.15 M NaCl, pH 7.4) containing 0.05% Twee-20 and sufficiently dried, 30 μl of a liquid scintillator (Microscinti 0, Packard) was added to the filter plate, and the ^3H count was measured by Topcount (Packard). […]
The inhibitory activity of each of the probe molecule compounds synthesized in Examples 2 and 7 to 10 against the binding of the ^3H-labeled Compound 1 to the HLF cell membrane was measured by the method described in Example 14 to confirm whether the probe compound could be bound to the binding protein like Compound 1. […]

T1 sequence (P62873 whole entry): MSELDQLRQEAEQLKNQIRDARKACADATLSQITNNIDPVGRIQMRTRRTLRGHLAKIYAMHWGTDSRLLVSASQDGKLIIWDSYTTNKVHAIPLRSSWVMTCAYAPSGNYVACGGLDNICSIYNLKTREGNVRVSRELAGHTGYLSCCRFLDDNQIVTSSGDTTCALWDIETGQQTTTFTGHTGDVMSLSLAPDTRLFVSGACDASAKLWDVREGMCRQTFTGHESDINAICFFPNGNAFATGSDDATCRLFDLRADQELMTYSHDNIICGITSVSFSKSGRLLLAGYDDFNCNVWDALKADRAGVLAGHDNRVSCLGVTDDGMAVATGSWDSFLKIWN
T1 sequence (P59768 with tags, fused parts or gaps partner limits assumed): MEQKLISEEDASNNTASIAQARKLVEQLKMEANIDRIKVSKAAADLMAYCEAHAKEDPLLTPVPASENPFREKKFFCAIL

Row | Structure (SMILES) | binding to Gβ1γ2-Myc (inhibition of 3H-labeled Compound 1 binding) (Gβ1γ2-Myc) | Kd (HLF cell membrane) [nM]
1 | O=C1NCC2=C1[C@@H](c1cccc3ccsc13)N(C(=O)CCc1ccccn1)[C@@H]1CCCC[C@H]1N2 [Compound 1] | could be bound to the Gβγ2-Myc | 930
2 | O=C1NCC2=C1[C@@H](c1ccccc1)N(C(=O)CO)[C@@H]1CCCC[C@H]1N2 [Compound 6] | could be bound to the Gβγ2-Myc | –
